According to patent US20210179577A1, “AROMATIC SULFONAMIDE DERIVATIVES FOR THE TREATMENT OF ISCHEMIC STROKE” (Bayer Aktiengesellschaft, priority 2017, published 2021):
pIC50: −log10 of the molar value.

molecular target: T1, mouse P2X4 (Mus musculus, UniProt Q9JJX6); assay: FLIPR assay, mouse P2X4 1321N1 Astrocytoma Cells; assay type: cell-based; details: agonist Mg-ATP at EC80
T1 construct: expressed in transfected cells; host or cells: 1321N1 astrocytoma cells
T1 sequence (Q9JJX6 1-388): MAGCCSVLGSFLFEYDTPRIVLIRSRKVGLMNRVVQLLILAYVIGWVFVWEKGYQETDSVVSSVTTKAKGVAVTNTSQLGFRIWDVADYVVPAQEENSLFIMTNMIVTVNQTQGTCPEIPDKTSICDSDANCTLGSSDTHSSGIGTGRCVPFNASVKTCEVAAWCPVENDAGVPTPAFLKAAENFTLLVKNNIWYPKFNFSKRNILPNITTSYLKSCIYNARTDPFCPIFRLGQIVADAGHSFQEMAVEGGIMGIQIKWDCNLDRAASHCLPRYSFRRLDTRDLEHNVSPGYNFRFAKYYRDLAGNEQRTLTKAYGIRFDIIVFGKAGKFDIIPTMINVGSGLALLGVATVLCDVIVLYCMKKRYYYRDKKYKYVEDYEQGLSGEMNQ
Experimental: 1321N1 Astrocytoma cells stably expressing human P2X4 or rat P2X4 or mouse P2X4 were plated in Collagen ITO-treated microplate at a seeding density of 10000 cells/well and incubated overnight. P2X4 function was assessed by measuring intracellular calcium changes using the calcium-chelating dye Fluo8-AM (Molecular Devices) on a fluorescent imaging plate reader (FLEX/FLIPR station; Molecular Devices). On the day of the assay, the medium was removed and the cells were incubated for 30 min at […] and 5% CO2 in 30 μL of dye buffer (Hank's balanced salt solution, 10 mM HEPES, 1.8 mM CaCl2, 1 mM MgCl2, 2 mM probenecid, 5 mM D-glucose monohydrate, 5 μM Fluo8-AM, pH=7.4). Compounds diluted in probenecid buffer (Hank's balanced salt solution, 10 mM HEPES, 1.8 mM CaCl2, 1 mM MgCl2, 2 mM probenecid, 5 mM D-glucose monohydrate, pH=7.4) were added in a volume of 10 μL and allowed to incubate for 30 min at room temperature. The final assay DMSO concentration was 0.25%. The agonist, Mg-ATP (Sigma), was added in a volume of 10 μL at a concentration representing the EC80 value. EC80 was determined to be 0.5 μM for human and mouse P2X4 and 5 μM for rat P2X4. The fluorescence was measured for an interval of 120 sec at 2 sec intervals. The excitation and emission wavelengths used to monitor fluorescence were 470-495 nm and 515-575 nm, respectively. The data was analyzed based on the increase in peak relative fluorescence units (RFU) compared to the basal fluorescence and the data was normalized to the agonist control. The compounds were tested in triplicates per plate and mean values were plotted in Excel XLFit to determine IC50 values, percentage of maximal inhibition and the Hill coefficients.

Row | pIC50 | Mouse P2X4 1321N1 Astrocytoma Cells (FLIPR Assay) avg Efficacy | SMILES
1 | 7.37 | 69% | NS(=O)(=O)c1cc(NC(=O)Cc2ccccc2Cl)ccc1-n1cc(C(F)(F)F)cn1 [Example 19, 2-(2-Chlorophenyl)-N-{3-sulfamoyl-4-[4-(trifluoromethyl)-1H-pyrazol-1-yl]phenyl}acetamide]
2 | 7.43 | 87% | N#Cc1cnn(-c2ccc(NC(=O)Cc3ccccc3Cl)cc2S(N)(=O)=O)c1 [Example 39, 2-(2-Chlorophenyl)-N-[4-(4-cyano-1H-pyrazol-1-yl)-3-sulfamoylphenyl]acetamide]
3 | 7.59 | 87% | NS(=O)(=O)c1cc(NC(=O)Cc2ccccc2Cl)ccc1-c1cnn(C(F)F)c1 [Example 326, 2-(2-Chlorophenyl)-N-{4-[1-(difluoromethyl)-1H-pyrazol-4-yl]-3-sulfamoylphenyl}acetamide]
